Values after ≈ are worked out from the molar mass of the structure shown.
System: A549
Assay: Antiproliferative activity against human A549 cells incubated for 96 hrs by MTT assay
Assay type: functional, cell-based
Details: A549, 96 h

Row | Compound | IC50 [µg/mL]
1 | COC(=O)/C=C1/SC(N2N=C(c3cc4ccccc4o3)CC2c2ccc(OC)c(OC)c2)=NC1=O (stereo unspecified) | 0.967 (≈ 1.97 µM)
2 | CCOC(=O)/C=C1/SC(N2N=C(c3cc4ccccc4o3)CC2c2ccc(OC)cc2)=NC1=O (stereo unspecified) | 1.21 (≈ 2.54 µM)
3 | CCOC(=O)/C=C1/SC(N2N=C(c3cc4ccccc4o3)CC2c2ccc(Cl)cc2)=NC1=O (stereo unspecified) | > 5
4 | COC(=O)/C=C1/SC(N2N=C(c3cc4ccccc4o3)CC2c2cccc(Br)c2)=NC1=O (stereo unspecified) | 4.29 (≈ 8.41 µM)
5 | CCOC(=O)/C=C1/SC(N2N=C(c3cc4ccccc4o3)CC2c2cccc(Br)c2)=NC1=O (stereo unspecified) | > 5
6 | CCOC(=O)/C=C1/SC(N2N=C(c3cc4ccccc4o3)CC2c2ccc(F)cc2)=NC1=O (stereo unspecified) | 0.93 (≈ 2.01 µM)
7 | COC(=O)/C=C1/SC(N2N=C(c3cc4ccccc4o3)CC2c2ccc(Cl)cc2)=NC1=O (stereo unspecified) | 1.08 (≈ 2.31 µM)
8 | COC(=O)/C=C1/SC(N2N=C(c3cc4ccccc4o3)CC2c2ccc(F)cc2)=NC1=O (stereo unspecified) | 0.808 (≈ 1.8 µM)
9 | COC(=O)/C=C1/SC(N2N=C(c3cc4ccccc4o3)CC2c2ccc(OC)cc2)=NC1=O (stereo unspecified) | 2.44 (≈ 5.3 µM)
10 | CCOC(=O)/C=C1/SC(N2N=C(c3cc4ccccc4o3)CC2c2ccc(OC)c(OC)c2)=NC1=O (stereo unspecified) | 3.42 (≈ 6.76 µM)
11 | CNC(=O)c1cc(Oc2ccc(NC(=O)Nc3ccc(Cl)c(C(F)(F)F)c3)cc2)ccn1 [SORAFENIB] | 3.78 (≈ 8.13 µM)

Source: ChEMBL document CHEMBL4184230, “Design, synthesis and biological evaluation of novel pyrazolo-oxothiazolidine derivatives as antiproliferative agents against human lung cancer cell line A549” (Bioorg Med Chem Lett, 2018)
